Source: PMC6384991, “5-Arylideneimidazolones with Amine at Position 3 as Potential Antibiotic Adjuvants against Multidrug Resistant Bacteria” (Molecules, 2019)
Several values for one entry are separate records, joined by “and”; a condition that tells them apart may be missing. Equal entries are not always repeated. Where two headings read alike, the source gives them in different places.

Tests used:
[1] = tested on: MDR strains of Gram-negative bacteria; set-up: method as in PMID 26824939; conditions: cited from earlier work
S. aureus ATCC 25923 [2] = experiment: Intrinsic antibacterial activity (MIC, microdilution) against reference S. aureus strain; assay type: cell-based; conditions: S. aureus ATCC 25923, compound alone, MH II broth
Protocol: (§1) Initially, 12 arylideneimidazolone derivatives were evaluated in vitro for their intrinsic antibacterial effect against two strains of S. aureus: the reference strain S. aureus ATCC 25923 and extremely-drug resistant (XDR) MRSA HEMSA 5 clinical isolate. This step of the study was necessary for: (i) elucidation whether molecules tested are devoid of antistaphylococcal activity and thus cannot become antimicrobial agents by themselves; and (ii) determination of the concentrations of compounds suitable for the further assay on their antibiotic adjuvant potency. In addition, the antistaphylococcal efficacy of oxacillin, which was paired with compounds tested, in the following assays was also assessed (Table 3).

E. aerogenes Ea-289 = experiment: MIC (microdilution) against E. aerogenes Ea-289 overexpressing AcrAB-TolC, porin-deficient
[3] = tested on: E. aerogenes Ea-294, Ea-298; experiment: MIC (microdilution) against E. aerogenes strains devoid of AcrAB / TolC
MRSA HEMSA 5 [4] = experiment: Intrinsic antibacterial activity (MIC, microdilution) against MRSA HEMSA 5; assay type: cell-based, S. aureus
Protocol: as §1

HepG2 cells = experiment: Hepatotoxicity, MTS viability assay; assay type: cell-based; conditions: 72 h; for HepG2 cells' viability: MTS
Protocol: Determination of potential hepatotoxicity was performed with hepatoma HepG2 cells by standard colorimetric MTS procedure. Compound 9 was diluted into the cell culture media in the following concentrations: 0.1, 1, 10 and 100 μM, added to the cells and incubated for 72 h at 37 °C in the presence of 5% CO2. The cytostatic drug doxorubicin (DX) was used at 1 µM, as the reference. […] However, in comparison to the result obtained for the reference DX the hepatotoxicity potential of tested compound is moderate, as its decreased cells’ viability to ~74% of control at 10 µM, whereas DX to ~15% of control at 1 µM (Figure 10).
The HepG2 cells were seeded in 96-well plates at a concentration of 1 × 10^4 cells/well and incubated for 24 h at 37 °C in 5% CO2 atmosphere to reach 50% of confluence. Compound 9 was diluted into fresh growth medium and added to the cells at the final concentrations 0.1 μM–100 μM. The positive controls DX and CCCP were added at 1 μM and 10 μM, respectively, and the cells were incubated for 72 h. The MTS reagent (CellTiter 96® AQueous One Solution Cell Proliferation Assay, Promega, Madison, WI, USA) was added next to the each well and incubated for 4 h. The absorbance was measured next using a microplate reader (EnSpire, PerkinElmer, Waltham, MA USA) at 490 nm to determine cells’ viability.

[5] = tested on: AcrAB-TolC efflux pump in E. aerogenes Ea-289; experiment: Real-time efflux (RTE) assay with 1,2'-dNA; conditions: compound 100 µM; Ea-289 strain
[6] = tested on: Salmonella typhimurium TA100; assay type: cell-based; conditions: for Mean of Revertants: 72 h; for Fold Increase Over Baseline: mutagenic if ≥ 2; for Binomial B-Value: ≤ 0.01 may be cytotoxic effect
Protocol: The mutagenicity was evaluated using Ames microplate fluctuation protocol (MPF) performed with Salmonella typhimurium TA100 strain, which is able to detect base pair substitutions. Calculation of medium control baseline (MCB) was performed basing on mean number of revertants in standard medium control in addition with one standard deviation. According to the manufacturer’s protocol, the mutagen alert is determined as 2-fold of medium control baseline (2 x MCB), which in this study was calculated as 24 revertants.
Ames microplate fluctuation protocol (MPF) assay was obtained from Xenometrix AG (Allschwil, Switzerland). The occurrence of mutagen-induced or spontaneous reversion events to histidine prototrophy was determined as a growth of S. typhimurium TA100 in the indicator medium without histidine after 72 h incubation at 37 °C temperature. NQNO (0.5 µM) was used as a positive control. Compound 9 was tested in triplicate at the final concentrations 1 and 10 µM. The revertants’ growth induced the colour change of medium which was analysed next colourimetrically with a microplate reader (EnSpire, PerkinElmer, Waltham, MA, USA) at 420 nm.

[7] = PAMPA membrane permeability (Pre-coated PAMPA Plate System Gentest); assay type: in vitro ADME; conditions: 200 µM in PBS pH 7.4, room temperature, read-out: Pe ± SD
E. aerogenes CM-64 = experiment: MIC (microdilution) against E. aerogenes CM-64 overexpressing AcrAB-TolC
MRSA HEMSA 5 [8] = experiment: MIC reduction assay: influence on oxacillin susceptibility in MRSA; assay type: cell-based, S. aureus
Protocol: The lack of a direct antibacterial activity of arylideneimidazolone derivatives tested allowed analyzing their anti-resistance potency in combination with the β-lactam antibiotic, oxacillin. […] The potential of compounds to become antibiotic adjuvants was evaluated by comparing the drug effectiveness in the presence and absence of compounds tested, thereby, by determining activity gain parameter A (Table 5). […] Slightly lower adjuvant-like activity was determined for the imidazolone derivatives 7 and 10 (A = 8–16). The efficacy of the remaining compounds was slightly less marked, however, also significant. Although compounds tested improved noticeably the antibacterial activity of oxacillin against MRSA clinical isolate, none of them restored the activity of the antibiotic (MIC < 2 µg/mL) against this highly resistant strain.

S. aureus ATCC 25923 [9] = experiment: MIC reduction assay: influence on oxacillin susceptibility in reference strain; assay type: cell-based

## O=C1NC(N2CCNCC2)=N/C1=C\c1ccc(-c2ccccc2)cc1 [Compound 5]
[1]; MDR Gram-negative bacteria
  reduction of rifampin MIC: 32 fold
[1]; oxacillin, chloramphenicol, linezolid and clarytromycin
  reduction of antibiotics MIC values: 8 fold

## CN1CCN(CCCN2C(=O)/C(=C/c3ccc4ccccc4c3)N=C2N)CC1.Cl [Compound 9, (Z)-2-Amino-3-(3-(4-methylpiperazin-1-yl)propyl)-5-(naphthalen-2-ylmethylene)-3H-imidazol-4(5H)-one hydrochloride]
S. aureus ATCC 25923 [2]; Staphylococcus aureus, ATCC25923, read-out: MIC Value
  MIC: 500 µM
E. aerogenes Ea-289; Klebsiella aerogenes, EA289
  MIC: > 2000 µM
[3]; Klebsiella aerogenes
  MIC: 1000 µM
MRSA HEMSA 5 [4]; Staphylococcus aureus, MRSA HEMSA 5, compound alone, MH II broth, read-out: MIC Value
  MIC: 500 µM
HepG2 cells; 10 µM
  HepG2 cells' viability: ~ 74 % of control
HepG2 cells; 10 and 100 µM, p < 0.001 vs control
  effect on HepG2 cells viability: statistically significant decrease
other
  melting point: 215 to 217 °C
[5]
  Inhibitory efficiency (IE) of 1,2'-dNA efflux: 80%
[6]; 1 µM
  Mean of Revertants: 9.33
  Fold Increase Over Baseline: 0.78
  Binomial B-Value: 0.6331
[6]; 10 µM
  Mean of Revertants: 5.33
  Fold Increase Over Baseline: 0.44
  Binomial B-Value: 0.0093
[6]; 1 and 10 µM, mutagen alert 24 revertants
  maximum revertants occurred: ≤ 11 revertants
[7]
  Papp at 5 h, 200 µM: 0.72 ± 0.27 ×10⁻⁶ cm/s
E. aerogenes CM-64; Klebsiella aerogenes, CM64
  MIC: > 2000 µM

## COc1cccc2c1C(=O)c1c(O)c3c(c(O)c1C2=O)C[C@@](O)(C(=O)CO)C[C@@H]3O[C@H]1C[C@H](N)[C@H](O)[C@H](C)O1 [DX, doxorubicin, reference compound]
HepG2 cells; 1 µM
  HepG2 cells' viability: ~ 15 % of control

## (Z)-5-((9H-Fluoren-2-yl)methylene)-2-amino-3-(2-(4-methylpiperazin-1-yl)ethyl)-3H-imidazol-4(5H)-one hydrochloride [Compound 13]
S. aureus ATCC 25923 [2]
  MIC Value: 62.5 to 125 µM
E. aerogenes Ea-289; Ea-289
  MIC: 500 µM
[3]; Ea-294, Ea-298
  MIC: 250 µM
MRSA HEMSA 5 [4]; MRSA HEMSA 5, compound alone, MH II broth
  MIC Value: 125 µM
MRSA HEMSA 5 [4]; text summary for both strains: ATCC 25923 and MRSA HEMSA 5
  MIC: 0.0625–0.125 mM and 28.25–56.5 µg/mL
MRSA HEMSA 5 [8]
  Activity Gain [A]: 4–8
  Range of Reduction (oxacillin MIC): from 512 to 64-128
E. aerogenes CM-64; CM-64
  MIC: 500 µM
S. aureus ATCC 25923 [9]
  Activity Gain [A]: 1
  Range of Reduction (oxacillin MIC): no effect
